One test has as its system HEK-293 cells. The test is described as follows: HEK-293 cytotoxicity detection (CellTiter-Glo). The class given is cell-based. The note with it: Homo sapiens, 72 h, 72 h incubation, CellTiter-Glo luminescence, read-out: HEK293. The method in brief:
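HEK-293 cells exposed 72 h to 8 compounds doses (4-fold dilutions, top stock 5 mM at 500×) in 0.2% DMSO. Viability by CellTiter-Glo luminescence; inhibition normalised to DMSO high control and low control, IC50 from four-parameter curve fit.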
(In general: Cellular ATP, detected with luciferase, serves as a proxy for viable cell number.)

The target of another test is BTK (Homo sapiens, UniProt Q06187). Put plainly: BTK cell degradation in TMD-8 cells, HTRF assay. Format: cell-based. Also noted: endogenous in cells; host or cells: TMD-8 cells. The settings on record: 6 h treatment, IC50 (DC50) of BTK degradation. The essentials:
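TMD-8 cells treated 6 h with 8-dose series (6-fold dilutions, 0.2% DMSO final), then lysed and BTK quantified by HTRF (337/665/620 nm) after overnight antibody incubation at room temperature. Degradation normalized to DMSO high and low controls; DC50 and Dmax from four-parameter fit.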
For orientation: Time-resolved FRET reads energy transfer from a long-lived donor to a nearby acceptor.

Structures are written as SMILES.

Sequence of BTK (Q06187 whole entry): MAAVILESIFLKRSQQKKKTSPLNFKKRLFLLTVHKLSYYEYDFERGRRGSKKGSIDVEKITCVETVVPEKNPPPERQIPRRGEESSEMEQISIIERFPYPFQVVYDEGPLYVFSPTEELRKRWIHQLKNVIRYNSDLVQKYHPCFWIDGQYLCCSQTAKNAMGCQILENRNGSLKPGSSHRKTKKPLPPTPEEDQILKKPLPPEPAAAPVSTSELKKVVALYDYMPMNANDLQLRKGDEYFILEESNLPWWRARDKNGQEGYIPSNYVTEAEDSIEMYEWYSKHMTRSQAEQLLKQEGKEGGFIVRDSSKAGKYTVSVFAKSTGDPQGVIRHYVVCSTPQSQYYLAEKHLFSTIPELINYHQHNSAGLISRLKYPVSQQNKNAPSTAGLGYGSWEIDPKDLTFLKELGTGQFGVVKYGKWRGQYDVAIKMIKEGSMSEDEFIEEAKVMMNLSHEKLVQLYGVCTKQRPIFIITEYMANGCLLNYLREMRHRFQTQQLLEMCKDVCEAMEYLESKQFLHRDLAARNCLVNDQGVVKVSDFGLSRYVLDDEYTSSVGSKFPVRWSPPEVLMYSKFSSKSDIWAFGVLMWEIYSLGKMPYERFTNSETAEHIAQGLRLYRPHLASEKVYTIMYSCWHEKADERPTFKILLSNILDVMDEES

Turning to `Cc1cc(Cl)cc(NC(=O)c2ccc(-c3nn4c(c3C(N)=O)Nc3ccc(N5CCN(CC6CCN(c7ccc(N8CCC(=O)NC8=O)cc7)CC6)CC5)cc3CC4)c(F)c2C)n1` [Example B42, 2-(4-((4-chloro-6-methylpyridin-2-yl)carbamoyl)-2-fluoro-3-methylphenyl)-7-(4-((1-(4-(2,4-dioxotetrahydropyrimidin-1(2H)-yl)phenyl)piperidin-4-yl)methyl)piperazin-1-yl)-9,10-dihydro-4H-benzo[d]pyrazolo[1,5-a][1,3]diazepine-3-carboxamide], in the test on HEK-293 cells, the IC50 was more than 10000 nM. At BTK, this compound returned a DC50 of 3.67 nM.
For `CCOc1ccnc(NC(=O)c2ccc(-c3nn4c(c3C(N)=O)Nc3ccc(N5CCN(CC6CCN(c7ccc(N8CCC(=O)NC8=O)cc7)CC6)CC5)cc3CC4)c(F)c2C)c1` [Example B51, 7-(4-((1-(4-(2,4-dioxotetrahydropyrimidin-1(2H)-yl)phenyl)piperidin-4-yl)methyl)piperazin-1-yl)-2-(4-((4-ethoxypyridin-2-yl)carbamoyl)-2-fluoro-3-methylphenyl)-9,10-dihydro-4H-benzo[d]pyrazolo[1,5-a][1,3]diazepine-3-carboxamide] the same measures were 290 nM and 7.39 nM.
For the compound `Cc1c(C(=O)Nc2cscn2)ccc(-c2nn3c(c2C(N)=O)Nc2ccc(N4CCN(C(=O)C5CCN(c6ccc(N7CCC(=O)NC7=O)cc6)CC5)CC4)cc2CC3)c1F` [Example B102, 7-(4-(1-(4-(2,4-dioxotetrahydropyrimidin-1(2H)-yl)phenyl)piperidine-4-carbonyl)piperazin-1-yl)-2-(2-fluoro-3-methyl-4-(thiazol-4-ylcarbamoyl)phenyl)-9,10-dihydro-4H-benzo[d]pyrazolo[1,5-a][1,3]diazepine-3-carboxamide], the IC50 in the test on HEK-293 cells is more than 10000 nM. Besides, on BTK, the DC50 was 1.1 nM.
For `Cc1c(C(=O)Nc2nccs2)ccc(-c2nn3c(c2C(N)=O)Nc2ccc(N4CCN(CC5CCN(c6ccc(N7CCC(=O)NC7=O)cc6)CC5)CC4)cc2CC3)c1F` [Example B83, 7-(4-((1-(4-(2,4-dioxotetrahydropyrimidin-1(2H)-yl)phenyl)piperidin-4-yl)methyl)piperazin-1-yl)-2-(2-fluoro-3-methyl-4-(thiazol-2-ylcarbamoyl)phenyl)-9,10-dihydro-4H-benzo[d]pyrazolo[1,5-a][1,3]diazepine-3-carboxamide] the same measures were more than 10000 nM and 2.9 nM.
In the case of `Cc1c(C(=O)Nc2cc(C)n(C)n2)ccc(-c2nn3c(c2C(N)=O)Nc2ccc(N4CCN(CC5CCN(c6ccc(N7CCC(=O)NC7=O)cc6)CC5)CC4)cc2CC3)c1F` [Example B86, 2-(4-((1,5-dimethyl-1H-pyrazol-3-yl)carbamoyl)-2-fluoro-3-methylphenyl)-7-(4-((1-(4-(2,4-dioxotetrahydropyrimidin-1(2H)-yl)phenyl)piperidin-4-yl)methyl)piperazin-1-yl)-9,10-dihydro-4H-benzo[d]pyrazolo[1,5-a][1,3]diazepine-3-carboxamide], in the test on HEK-293 cells, the IC50 is more than 10000 nM. In addition, the DC50 at BTK turned out to be 4.37 nM.
For `COc1ccccc1C(=O)NCc1ccc(-c2nn3c(c2C(N)=O)Nc2ccc(N4CCN(CC5CCN(c6ccc(N7CCC(=O)NC7=O)cc6)CC5)CC4)cc2CC3)cc1` [Example C1, 7-(4-((1-(4-(2,4-dioxotetrahydropyrimidin-1(2H)-yl)phenyl)piperidin-4-yl)methyl)piperazin-1-yl)-2-(4-((2-methoxybenzamido)methyl)phenyl)-9,10-dihydro-4H-benzo[d]pyrazolo[1,5-a][1,3]diazepine-3-carboxamide] the same measures were more than 10000 nM and 0.758 nM.
The corresponding values for `COc1ccc2ccccc2c1C(=O)NCc1ccc(-c2nn3c(c2C(N)=O)Nc2ccc(N4CCN(CC5CCN(c6ccc(N7CCC(=O)NC7=O)cc6)CC5)CC4)cc2CC3)cc1C` [Example C10, 7-(4-((1-(4-(2,4-dioxotetrahydropyrimidin-1(2H)-yl)phenyl)piperidin-4-yl)methyl)piperazin-1-yl)-2-(4-((2-methoxy-1-naphthamido)methyl)-3-methylphenyl)-9,10-dihydro-4H-benzo[d]pyrazolo[1,5-a][1,3]diazepine-3-carboxamide] are more than 10000 nM and 10.1 nM.
For `Cc1cccc(N(CC(=O)OCc2ccccc2)C(=O)c2ccc(-c3nn4c(c3C(N)=O)Nc3ccc(N5CCN(CC6CCN(c7ccc(N8CCC(=O)N(CC(=O)OCc9ccccc9)C8=O)cc7)CC6)CC5)cc3CC4)c(F)c2C)n1` [Example B81, benzyl 2-(3-(4-(4-((4-(2-(4-((2-(benzyloxy)-2-oxoethyl)(6-methylpyridin-2-yl)carbamoyl)-2-fluoro-3-methylphenyl)-3-carbamoyl-9,10-dihydro-4H-benzo[d]pyrazolo[1,5-a][1,3]diazepin-7-yl)piperazin-1-yl)methyl)piperidin-1-yl)phenyl)-2,6-dioxotetrahydropyrimidin-1(2H)-yl)acetate], in the test with HEK-293 cells, the IC50 is 56.8 nM. Moreover, the DC50 at BTK was more than 2000 nM.
The corresponding values for `NC(=O)c1c(-c2ccc(Oc3ccccc3)cc2F)nn2c1Nc1ccc(N3CCN(CC4CCN(c5ccc(N6CCC(=O)NC6=O)cc5)CC4)CC3)cc1CC2` [Example A37, 7-(4-((1-(4-(2,4-dioxotetrahydropyrimidin-1(2H)-yl)phenyl)piperidin-4-yl)methyl)piperazin-1-yl)-2-(2-fluoro-4-phenoxyphenyl)-9,10-dihydro-4H-benzo[d]pyrazolo[1,5-a][1,3]diazepine-3-carboxamide] are 70 nM and 4.71 nM.
The corresponding values for `COc1c(F)c(F)c(F)c(F)c1C(=O)NCc1ccc(-c2nn3c(c2C(N)=O)Nc2ccc(N4CCN(CC5CCN(c6ccc(N7CCC(=O)NC7=O)cc6)CC5)CC4)cc2CC3)cc1C` [Example C43, 7-(4-((1-(4-(2,4-dioxotetrahydropyrimidin-1(2H)-yl)phenyl)piperidin-4-yl)methyl)piperazin-1-yl)-2-(3-methyl-4-((2,3,4,5-tetrafluoro-6-methoxybenzamido)methyl)phenyl)-9,10-dihydro-4H-benzo[d]pyrazolo[1,5-a][1,3]diazepine-3-carboxamide] are 979 nM and 29.4 nM.
For `CC(C)(C)c1noc(C(=O)NCc2ccc(-c3nn4c(c3C(N)=O)Nc3ccc(N5CCN(CC6CCN(c7ccc(N8CCC(=O)NC8=O)cc7)CC6)CC5)cc3CC4)cc2)n1` [Example C12, 3-(tert-butyl)-N-(4-(3-carbamoyl-7-(4-((1-(4-(2,4-dioxotetrahydropyrimidin-1(2H)-yl)phenyl)piperidin-4-yl)methyl)piperazin-1-yl)-9,10-dihydro-4H-benzo[d]pyrazolo[1,5-a][1,3]diazepin-2-yl)benzyl)-1,2,4-oxadiazole-5-carboxamide] the same measures were more than 10000 nM and 1.82 nM.
`NC(=O)c1c(-c2ccc(Oc3ccccc3)cc2)nn2c1Nc1ccc(OCCC3CCN(c4ccc(N5CCC(=O)NC5=O)cc4)CC3)cc1CC2` [Example A24, 7-(2-(1-(4-(2,4-dioxotetrahydropyrimidin-1(2H)-yl)phenyl)piperidin-4-yl)ethoxy)-2-(4-phenoxyphenyl)-9,10-dihydro-4H-benzo[d]pyrazolo[1,5-a][1,3]diazepine-3-carboxamide]: in the test on HEK-293 cells, the IC50 was 235 nM. The compound also registered a DC50 on BTK of 9.26 nM.
For `Cc1cc(-c2nn3c(c2C(N)=O)Nc2ccc(N4CCN(CC5CCN(c6ccc(N7CCC(=O)NC7=O)cc6)CC5)CC4)cc2CC3)ccc1CNC(=O)c1noc(C(C)(C)C)n1` [Example C7, 5-(tert-butyl)-N-(4-(3-carbamoyl-7-(4-((1-(4-(2,4-dioxotetrahydropyrimidin-1(2H)-yl)phenyl)piperidin-4-yl)methyl)piperazin-1-yl)-9,10-dihydro-4H-benzo[d]pyrazolo[1,5-a][1,3]diazepin-2-yl)-2-methylbenzyl)-1,2,4-oxadiazole-3-carboxamide] the same measures were more than 10000 nM and 22.7 nM.
For `NC(=O)c1c(-c2ccc(Oc3ccccc3)cc2)nn2c1Nc1ccc(C(=O)N3CCC(CN4CCN(c5cc6c(cc5F)C(=O)N(C5CCC(=O)NC5=O)C6=O)CC4)CC3)cc1CC2` (centres unmarked) [Example A14, 7-(4-((4-(2-(2,6-dioxopiperidin-3-yl)-6-fluoro-1,3-dioxoisoindolin-5-yl)piperazin-1-yl)methyl)piperidine-1-carbonyl)-2-(4-phenoxyphenyl)-9,10-dihydro-4H-benzo[d]pyrazolo[1,5-a][1,3]diazepine-3-carboxamide] the same measures were 509 nM and 3.22 nM.
The corresponding values for `Cc1cccc(N(COC(=O)C(C)(C)C)C(=O)c2ccc(-c3nn4c(c3C(N)=O)Nc3ccc(N5CCN(CC6CCN(c7ccc(N8CCC(=O)N(COC(=O)C(C)(C)C)C8=O)cc7)CC6)CC5)cc3CC4)c(F)c2C)n1` [Example B79, (3-(4-(4-((4-(3-carbamoyl-2-(2-fluoro-3-methyl-4-((6-methylpyridin-2-yl)((pivaloyloxy)methyl)carbamoyl)phenyl)-9,10-dihydro-4H-benzo[d]pyrazolo[1,5-a][1,3]diazepin-7-yl)piperazin-1-yl)methyl)piperidin-1-yl)phenyl)-2,6-dioxotetrahydropyrimidin-1(2H)-yl)methyl pivalate] are more than 10000 nM and 3.68 nM.
Regarding `NC(=O)c1c(-c2ccc(Oc3ccccc3)cc2)nn2c1Nc1ccc(C3CCN(CCC4CCN(c5ccc(N6CCC(=O)NC6=O)cc5)CC4)CC3)cc1CC2` [Example A28, 7-(1-(2-(1-(4-(2,4-dioxotetrahydropyrimidin-1(2H)-yl)phenyl)piperidin-4-yl)ethyl)piperidin-4-yl)-2-(4-phenoxyphenyl)-9,10-dihydro-4H-benzo[d]pyrazolo[1,5-a][1,3]diazepine-3-carboxamide], the IC50 with HEK-293 cells came to 81.1 nM. Further, it took 2.01 nM to reach half-maximal degradation at BTK (DC50).

One may read the DC50 as the concentration at which degradation of the target reaches its halfway point. Lower therefore signals a more potent degrader.
